# Source: US20030125321A1, “Methods and compositions for treating respiratory pathologies” (priority 2001, published 2003)
# System: male Wistar rats
# Assay: Pulmonary paracellular permeability to 125I labelled human serum albumin after intratracheal Pseudomonas aeruginosa LPS
# Assay type: in vivo, rat
# Experimental: Pulmonary permeability was measured by means of a tracer, ^125I -labelled human serum albumin which, after intratracheal infusion, was determined in urine, plasma, lung tissue and bronchoalveolar lavage fluid.
# For this experiment, three groups of 6 male Wistar rats (200-225 g) were pretreated either with ML-7 by the IP route (3 mg/kg then 1 mg/kg 3 times a day for 48 h) or the vehicle (ethanol 10%). One hour after the next-to-last administration of ML-7, under urethane anesthesia ([…] IP), a slow intratracheal infusion of 150 μl of an iso-osmolar solution (5% bovine albumin +PBS) containing the tracer and containing (2 groups) or not containing (control group) LPS (1 μg/rat) was given.
# Four hours after the intratracheal infusion, urine, blood, bronchoalveolar lavage (BAL) and lungs were harvested and ^125I radioactivity was measured on each sample.
smiles,measurement,setting,value
"O=S(=O)(c1cccc2c(I)cccc12)N1CCCNCC1 [ML-7, 1-(5-iodonaphtalene-1-sulfonyl)-1H-hexahydro-1,4-diazepine]",LPS-induced increase in pulmonary permeability,ML-7 pretreatment IP 3 mg/kg then 1 mg/kg 3 times a day for 48 h,inhibited
same,"effect on vascular endothelial cells (endothelium permeability, tone, pulmonary circulating hemodynamics)",inferred from unchanged plasma radioactivity,does not present effect
